Where two headings read alike, the source gives them in different places.

This test deals with G551D‐CFTR (Homo sapiens, UniProt P13569, G551D). In words: Single-channel recording in excised inside-out membrane patches, G551D‐CFTR. Type of test: biochemical. Set-up: expressed in transfected cells; BHK cells from MD Amaral. As to conditions: for enhancement of Po(app): each compound 10 μM, alone or together; for Emax: read-out: Maximal effect (%) (95% CI). On the procedure: For CFTR studies using automated electrophysiology and single-channel recording, we used baby hamster kidney (BHK) cells (RRID:CVCL_1915) and human embryonic kidney (HEK) 293 cells (RRID:CVCL_0045) stably expressing wild-type human CFTR and the CFTR variants F508del- and […] et al., [2002]; Xu et al., [2014]). […] HEK cells expressing CFTR variants were generated using the Flp-InTM system as described above for F508del- and G551D-CFTR-expressing FRT cells. They were cultured in Dulbecco's modified Eagle's medium (glucose, 1.5 g·L^-1; sodium pyruvate, 110 mg·L^-1) supplemented with 10% FBS (PAA Laboratories), GlutaMAXTM and hygromycin-B (150 μg·ml^-1; InvitrogenTM, Thermo Fisher Scientific) at 37°C in a humidified atmosphere with 5% CO2. Prior to study, F508del-CFTR expressed in HEK cells was trafficked to the plasma membrane by low temperature incubation (27°C for 24-72 h). The single-channel behaviour of human CFTR in excised membrane patches from different mammalian cell lines heterologously expressing CFTR is equivalent (wild-type CFTR, Chen et al., [2009]; F508del-CFTR, Bose et al., [2019]; and G551D-CFTR, J Liu, Y Wang, Z Cai, and DN Sheppard, unpublished observations). CFTR Cl^- channels were recorded in excised inside-out membrane patches using an Axopatch 200B patch-clamp amplifier and pCLAMP software (version 10.3) (RRID:SCR_011323) (both from Molecular Devices, San Jose, CA, USA) (Sheppard & Robinson, [1997]). […] Within 2 min after membrane patch excision, we added the catalytic subunit of protein kinase A (PKA; 75 nM) and ATP (1 mM) to the intracellular solution to activate CFTR Cl^- channels. To minimise channel rundown, we added PKA and millimolar concentrations of ATP to all intracellular solutions and clamped voltage at -50 mV. […] We reduced the ATP concentration when testing CFTR potentiators on wild-type CFTR to observe their effects more clearly. […] Instead, specific interventions with CFTR potentiators were compared with the pre-intervention control period made with the same concentration of ATP and PKA, but without test compounds. […] F508del-CFTR, n ≤ 4; G551D-CFTR, n ≤ 5). To determine channel number, we used the maximum number of simultaneous channel openings observed during an experiment (Cai et al., [2006]). To minimise errors, we used experimental conditions that robustly potentiate channel activity and verified that recordings were of sufficient length to ascertain the correct number of channels ([…] et al., [1994]). […] Despite our precautions, we cannot exclude the possibility of unobserved G551D-CFTR Cl^- channels in excised membrane patches causing Po values for G551D-CFTR to be […]. Therefore, Po values for G551D-CFTR are expressed as apparent Po (Po(app)) values. Single-channel currents were directly acquired to a computer hard disc after filtering at a corner frequency (f c) of 500 Hz with an eight-pole Bessel filter (model LHBF-48×; npi electronic GmbH, Tamm, Germany) and digitising at a sampling rate of 5 kHz using a Digidata 1440A interface (Molecular Devices) and pCLAMP software. To measure single-channel current amplitude (i), Gaussian distributions were fit to current amplitude histograms. For Po and burst analyses, lists of open- and closed-times were created using a half-amplitude crossing criterion for event detection and dwell-time histograms constructed as previously described (Sheppard & Robinson, [1997]); transitions < 1 ms were excluded from the analysis (eight-pole Bessel filter rise time [T 10-90] ~ 0.73 ms at f c = 500 Hz). Histograms were fitted with one or more component exponential functions using the maximum likelihood method. […] The mean interburst interval (TIBI) was calculated using the equation (Cai et al., [2006]): (1) Po=Tb/TMBD+TIBI, where T b = (mean burst duration) × (open probability within a burst). Mean burst duration (T MBD) and open probability within a burst (Po[burst]) were determined directly from experimental data using pCLAMP software. […]

Where [1] appears, read: G551D‐CFTR Cl− channels, excised inside-out patches, 23°C, data normalised to ivacaftor 1 μM, read-out: EC50 (μM) (95% CI).
Setting [2] is: G551D‐CFTR, ATP 1 mM, PKA 75 nM, ~23°C.
Where [3] appears, read: G551D‐CFTR, ATP 1 mM, PKA 75 nM, ~23°C, read-out: EC50 for potentiation of Po(app).
The mark [4] stands for this setting: G551D‐CFTR, compound 10 μM, ATP 0.1–3 mM.

Chain of G551D‐CFTR (P13569 whole entry G551D): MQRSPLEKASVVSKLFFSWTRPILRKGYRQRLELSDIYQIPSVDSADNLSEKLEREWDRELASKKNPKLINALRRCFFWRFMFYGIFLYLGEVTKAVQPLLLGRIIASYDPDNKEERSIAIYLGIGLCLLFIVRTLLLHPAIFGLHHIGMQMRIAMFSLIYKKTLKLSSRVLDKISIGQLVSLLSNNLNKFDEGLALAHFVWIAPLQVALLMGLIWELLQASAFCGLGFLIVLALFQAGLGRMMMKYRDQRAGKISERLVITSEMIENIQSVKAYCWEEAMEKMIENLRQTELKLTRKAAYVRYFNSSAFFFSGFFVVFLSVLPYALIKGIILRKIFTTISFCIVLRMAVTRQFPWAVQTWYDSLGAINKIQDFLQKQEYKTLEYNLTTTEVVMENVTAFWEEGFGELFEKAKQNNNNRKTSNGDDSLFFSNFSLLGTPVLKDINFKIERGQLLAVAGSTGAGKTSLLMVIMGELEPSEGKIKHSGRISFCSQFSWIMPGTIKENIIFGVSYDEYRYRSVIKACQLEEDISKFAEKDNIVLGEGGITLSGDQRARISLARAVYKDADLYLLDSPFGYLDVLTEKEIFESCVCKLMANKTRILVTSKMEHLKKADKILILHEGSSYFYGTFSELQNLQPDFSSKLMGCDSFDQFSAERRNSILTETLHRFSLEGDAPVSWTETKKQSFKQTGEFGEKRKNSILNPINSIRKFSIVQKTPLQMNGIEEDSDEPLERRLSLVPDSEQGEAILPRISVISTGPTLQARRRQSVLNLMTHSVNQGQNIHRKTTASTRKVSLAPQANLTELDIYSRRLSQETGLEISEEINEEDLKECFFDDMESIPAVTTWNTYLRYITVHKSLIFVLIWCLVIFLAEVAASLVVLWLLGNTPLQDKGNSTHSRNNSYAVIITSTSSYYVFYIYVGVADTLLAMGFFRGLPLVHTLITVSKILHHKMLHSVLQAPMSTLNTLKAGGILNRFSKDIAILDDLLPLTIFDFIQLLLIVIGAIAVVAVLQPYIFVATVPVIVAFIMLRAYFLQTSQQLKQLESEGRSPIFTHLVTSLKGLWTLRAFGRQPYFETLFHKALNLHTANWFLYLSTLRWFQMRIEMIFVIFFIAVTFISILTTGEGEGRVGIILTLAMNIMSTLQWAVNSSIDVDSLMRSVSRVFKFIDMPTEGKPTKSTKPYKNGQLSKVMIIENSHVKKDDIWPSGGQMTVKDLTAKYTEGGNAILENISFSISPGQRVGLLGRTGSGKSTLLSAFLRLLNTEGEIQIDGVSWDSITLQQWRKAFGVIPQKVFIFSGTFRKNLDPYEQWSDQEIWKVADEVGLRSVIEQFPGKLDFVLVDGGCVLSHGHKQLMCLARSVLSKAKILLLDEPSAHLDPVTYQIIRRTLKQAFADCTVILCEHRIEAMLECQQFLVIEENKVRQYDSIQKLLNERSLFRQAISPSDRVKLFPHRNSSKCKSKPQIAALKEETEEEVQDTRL

One may read the EC50 as the concentration at which the effect is half-maximal. With `Cc1ncccc1CNC(=O)c1ccc2c(c1)CC[C@H]1C[C@](O)(CCC(F)(F)F)CC[C@]21Cc1ccccc1` (racemic) [CP‐628006, rac‐(4bR,7R,8aS)‐4b‐benzyl‐7‐hydroxy‐N‐((2‐methylpyridin‐3‐yl)methyl)‐7‐(3,3,3‐trifluoropropyl)‐4b,5,6,7,8,8a,9,10‐octahydrophenanthrene‐2‐carboxamide], the Emax worked out at 145%. The 50% effective concentration (EC50) under setting [1] worked out at 0.17 µM. Also, the “Po(app) max” value under setting [2] is 0.38. Moreover, the EC50 under setting [3] came out at 0.38 µM. Besides, the “Po(app) max of ATP-dependence in presence of compound” value under setting [4] was 0.30. Moreover, under “G551D‐CFTR, ATP 1 mM”, the “enhancement of Po(app)” value stood at 71 ± 30 fold.
As to `CC(C)(C)c1cc(C(C)(C)C)c(NC(=O)c2c[nH]c3ccccc3c2=O)cc1O` [ivacaftor, reference compound], the Emax was 96.7%. For the same compound, the EC50 under setting [1] turned out to be 0.036 µM. For the same compound, the “Po(app) max” value under setting [2] was found to be 0.31. The EC50 under setting [3] was 0.14 µM. For the same compound, the “ATP-dependence of G551D‐CFTR activity in presence of compound” value under setting [4] is “unaffected by altering the ATP concentration”. Moreover, the “enhancement of Po(app)” value (G551D‐CFTR, ATP 1 mM) is 44 ± 12 fold.
